This is an account of results in patent US20220220128A1, “HETEROCYCLIC COMPOUNDS AS KINASE INHIBITORS, COMPOSITIONS COMPRISING THE HETEROCYCLIC COMPOUND, AND METHODS OF USE THEREOF” (JS Innopharm (Shanghai) Ltd, priority 2019, published 2022).

For one test, the target named is T1, human RET kinase (Homo sapiens, UniProt P07949).
T1 construct: purchased Carna 08-159
In words: RET Kinase Assay (LanthaScreen TR-FRET enzymatic assay). Format: biochemical. Particulars: 7 nM RET, 23 μM ATP. As for the experimental part:
Compounds were tested in a LanthaScreen™ time-resolved fluorescence energy transfer (TR-FRET) enzymatic assay from Invitrogen. The assay used human RET kinase (Carna 08-159). Test compounds were prepared and diluted in DMSO in 3-fold serial dilutions to 50× of the final testing concentrations. The compounds were then further diluted to 5× by the kinase reaction buffer (50 mM HEPES pH 7.5, 0.0015% Brij-35). The enzymatic reaction for compound testing was performed in a white 384-well polypropylene plate (Corning 3573) with a total reaction volume of 25 μl containing 7 nM RET, 3 μM peptide substrate FAM-P2 (GL Biochem 112394), and 23 μM ATP (Sigma A7699-1G). The assay started with loading RET diluted in kinase reaction buffer to wells, followed by addition of equal volume of 5× compounds for 15-min incubation at the room temperature for pre-treatment. The enzymatic reaction was initiated by addition of mixture of the substrate and ATP prepared in kinase reaction buffer. After incubation at 28° C. for one hour, 25 μl of stopper buffer (a mixture of 100 mM HEPES pH 7.5 buffer, 0.015% Brij-35, 50 mM EDTA and 0.2% of coating reagent 3 (Cliper Lifesciences)) and produce TR-FRET signals. After 30 minutes of incubation at room temperature, the plate was read in a Caliper with the following settings: Excitation 340 nm (30)/Emission1 495 nm (10)/Emission2 520 nm (25). The TR-FRET values were dimensionless numbers that were calculated as the ratio of the acceptor ([…]) signal to the donor (Terbium) signal. Percent of control was calculated as the percentage of compound-treated vs 1% DMSO vehicle-treated. The dose-response curves were generated and the IC50s were calculated by nonlinear sigmoid curve fitting using XLFit.
In general terms: In TR-FRET formats the signal depends on donor and acceptor labels being close together.

The next test addresses T2, human KDR kinase (Homo sapiens, UniProt P35968).
T2 construct: purchased Carna 08-191
Kind of test: KDR Kinase Assay (LanthaScreen TR-FRET enzymatic assay). Particulars: 1.2 nM KDR, 92 μM ATP. Format: biochemical. The protocol: Compounds were tested in a LanthaScreen™ time-resolved fluorescence energy transfer (TR-FRET) enzymatic assay from Invitrogen. The assay used human KDR kinase (Carna 08-191). Test compounds were prepared and diluted in DMSO in 3-fold serial dilutions to 50× of the final testing concentrations. The compounds were then further diluted to 5× by the kinase reaction buffer (50 mM HEPES pH 7.5, 0.0015% Brij-35). The enzymatic reaction for compound testing was performed in a white 384-well polypropylene plate (Corning 3573) with a total reaction volume of 25 μl containing 1.2 nM KDR, 3 μM peptide substrate FAM-P22 (GL Biochem 112393), and 92 μM ATP (Sigma A7699-1G). The assay started with loading RET diluted in kinase reaction buffer to wells, followed by addition of equal volume of 5× compounds for 15-min incubation at the room temperature for pre-treatment. The enzymatic reaction was initiated by addition of mixture of the substrate and ATP prepared in kinase reaction buffer. After incubation at 28° C. for one hour, 25 μl of stopper buffer (a mixture of 100 mM HEPES pH 7.5 buffer, 0.015% Brij-35, 50 mM EDTA and 0.2% of coating reagent 3 (Cliper Lifesciences)) and produce TR-FRET signals. After 30 minutes of incubation at room temperature, the plate was read in a Caliper with the following settings: Excitation 340 nm (30)/Emission1 495 nm (10)/Emission2 520 nm (25). The TR-FRET values were dimensionless numbers that were calculated as the ratio of the acceptor ([…]) signal to the donor (Terbium) signal. Percent of control was calculated as the percentage of compound-treated vs 1% DMSO vehicle-treated. The dose-response curves were generated and the IC50s were calculated by nonlinear sigmoid curve fitting using XLFit.

Another test relates to TT cells. In words: TT Cell Proliferation Assay (WST-8, 8 days). Particulars: Homo sapiens, TT, 192 h, growth inhibition in TT cells, read-out: TT Cellular Activity. Format: cell-based. As for the experimental part:
Compounds disclosed herein were tested for the inhibition of RET by a cancer cell proliferation assay commonly known as MTT assay. In this assay, a complete media was prepared by adding 10% fetal bovine serum to RPMI-1640 medium (Life technology). TT cells were added to each of 88 wells of a 96 well plate at a seeding density of 6,000 cells/well/90 μL. The cells were allowed to attach to the plate by incubating at 37° C. for 24 hours. The compound was dissolved in DMSO (SIGMA). A solution of test compound was prepared in complete media by serial dilution to obtain the following concentrations: 50 μM, 15 μM, 5 μM, 1.5 μM, 0.5 μM, 0.15 μM, 0.05 μM, 0.015 μM and 0.005 μM. The test compound solution (10 μL) was added to each of 80 cell-containing wells. The final concentrations of the compound were following: 5 μM, 1.5 μM, 0.5 μM, 0.15 μM, 0.05 μM, 0.015 μM, 0.005 μM, 0.0015 μM and 0.0005 μM. The final concentration of DMSO is 0.5%. To the 8 remaining cell-containing wells, only complete media (containing 0.5% DMSO) was added to form a control group in order to measure maximal proliferation. To the remaining 8 empty wells, complete media was added to for a vehicle control group in order to measure background. The plates were incubated at 37° C. for 8 days. 10 μL WST-8 solution (DOJINDO, Cell Counting KIT-8) was added to each well. The plates were further incubated at 37° C. for 5 hours, and then read for the absorbance using a microplate reader at 450 nm. The IC50 was calculated using GraphPad Prism.

T2 sequence (P35968 20-1356): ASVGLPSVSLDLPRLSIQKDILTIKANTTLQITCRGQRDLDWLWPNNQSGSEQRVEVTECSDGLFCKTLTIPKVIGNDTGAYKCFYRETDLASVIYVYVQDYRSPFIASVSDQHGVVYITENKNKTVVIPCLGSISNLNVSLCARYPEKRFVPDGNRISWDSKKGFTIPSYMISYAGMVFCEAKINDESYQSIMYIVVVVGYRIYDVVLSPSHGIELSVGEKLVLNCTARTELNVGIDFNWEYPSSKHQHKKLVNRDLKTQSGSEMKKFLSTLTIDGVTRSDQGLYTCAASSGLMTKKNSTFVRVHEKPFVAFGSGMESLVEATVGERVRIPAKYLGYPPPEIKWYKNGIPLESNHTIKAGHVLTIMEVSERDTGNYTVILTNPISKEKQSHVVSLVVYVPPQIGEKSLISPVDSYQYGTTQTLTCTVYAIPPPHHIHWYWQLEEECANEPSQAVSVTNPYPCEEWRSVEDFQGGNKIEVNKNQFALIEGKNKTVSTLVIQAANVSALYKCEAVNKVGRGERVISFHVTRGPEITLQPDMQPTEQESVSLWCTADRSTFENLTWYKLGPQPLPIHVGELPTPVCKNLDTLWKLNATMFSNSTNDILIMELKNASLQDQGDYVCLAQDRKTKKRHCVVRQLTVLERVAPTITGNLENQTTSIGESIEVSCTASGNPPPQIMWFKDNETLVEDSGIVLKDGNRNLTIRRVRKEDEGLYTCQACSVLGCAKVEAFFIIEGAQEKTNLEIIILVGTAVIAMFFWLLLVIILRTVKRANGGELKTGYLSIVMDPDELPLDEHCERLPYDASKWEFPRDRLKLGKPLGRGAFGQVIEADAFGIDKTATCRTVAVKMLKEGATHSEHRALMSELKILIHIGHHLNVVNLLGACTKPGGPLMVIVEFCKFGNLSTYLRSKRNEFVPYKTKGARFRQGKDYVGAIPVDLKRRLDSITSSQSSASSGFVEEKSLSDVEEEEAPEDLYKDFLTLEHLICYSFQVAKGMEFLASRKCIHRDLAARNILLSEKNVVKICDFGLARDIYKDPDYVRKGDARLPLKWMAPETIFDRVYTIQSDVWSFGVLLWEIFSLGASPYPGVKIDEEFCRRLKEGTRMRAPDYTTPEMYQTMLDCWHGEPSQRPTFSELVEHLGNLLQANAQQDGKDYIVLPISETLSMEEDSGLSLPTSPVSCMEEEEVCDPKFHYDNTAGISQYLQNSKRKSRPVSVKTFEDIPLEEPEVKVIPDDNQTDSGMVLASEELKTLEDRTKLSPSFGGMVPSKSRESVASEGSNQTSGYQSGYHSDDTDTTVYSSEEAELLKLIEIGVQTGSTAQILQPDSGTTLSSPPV
T1 sequence (P07949 29-1114): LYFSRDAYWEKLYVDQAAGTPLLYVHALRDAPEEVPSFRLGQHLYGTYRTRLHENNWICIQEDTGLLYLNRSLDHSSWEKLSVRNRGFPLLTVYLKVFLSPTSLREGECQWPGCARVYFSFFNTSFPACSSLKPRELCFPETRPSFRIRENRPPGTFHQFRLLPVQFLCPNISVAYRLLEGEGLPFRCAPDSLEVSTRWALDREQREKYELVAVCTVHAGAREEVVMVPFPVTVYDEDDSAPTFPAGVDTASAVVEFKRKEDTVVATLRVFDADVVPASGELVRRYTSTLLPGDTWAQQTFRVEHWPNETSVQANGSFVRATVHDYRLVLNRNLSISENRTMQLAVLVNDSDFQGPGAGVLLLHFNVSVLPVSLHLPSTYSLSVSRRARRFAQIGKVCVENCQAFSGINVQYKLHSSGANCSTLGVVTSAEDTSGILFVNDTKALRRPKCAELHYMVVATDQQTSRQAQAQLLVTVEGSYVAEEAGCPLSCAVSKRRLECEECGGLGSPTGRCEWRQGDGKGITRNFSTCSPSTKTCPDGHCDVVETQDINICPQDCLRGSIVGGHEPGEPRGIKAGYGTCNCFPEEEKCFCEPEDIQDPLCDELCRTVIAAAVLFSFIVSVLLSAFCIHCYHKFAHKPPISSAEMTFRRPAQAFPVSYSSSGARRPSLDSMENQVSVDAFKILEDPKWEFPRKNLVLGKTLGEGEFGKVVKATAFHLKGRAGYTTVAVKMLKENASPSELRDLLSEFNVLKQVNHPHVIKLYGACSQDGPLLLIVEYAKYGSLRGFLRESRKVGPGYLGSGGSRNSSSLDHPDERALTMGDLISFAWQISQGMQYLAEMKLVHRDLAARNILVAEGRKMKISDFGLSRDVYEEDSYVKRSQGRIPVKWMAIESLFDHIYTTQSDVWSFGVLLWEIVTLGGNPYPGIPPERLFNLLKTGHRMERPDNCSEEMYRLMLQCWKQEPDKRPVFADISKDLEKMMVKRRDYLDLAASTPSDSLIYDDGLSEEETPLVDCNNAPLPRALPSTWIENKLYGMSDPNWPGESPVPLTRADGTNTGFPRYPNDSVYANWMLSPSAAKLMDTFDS

For the molecule `COc1ccc(C(=O)N2C[C@@H]3CN(c4ccc(-c5cc(-c6cnn(C)c6)cn6ncc(C#N)c56)cn4)C[C@@H]3C2)cn1` [Example 1, 4-(6-((3aR,6aS)-5-(6-methoxynicotinoyl)hexahydropyrrolo[3,4-c]pyrrol-2(1H)-yl)pyridin-3-yl)-6-(1-methyl-1H-pyrazol-4-yl)pyrazolo[1,5-a]pyridine-3-carbonitrile], the IC50 was ≤ 10 nM on human RET kinase, 10 to 50 nM against human KDR kinase and 10 to 50 nM in the test with TT cells.
As to `CC(C)C(O)C(=O)N1C[C@@H]2CN(c3ccc(-c4cc(-c5cnn(C)c5)cn5ncc(C#N)c45)cn3)C[C@@H]2C1` (stereo partly drawn) [Example 2], the IC50 on human RET kinase was ≤ 10 nM; against human KDR kinase, 10 to 50 nM; with TT cells it was 10 to 50 nM.
Consider `Cn1cc(-c2cc(-c3ccc(N4C[C@H]5CN(C(=O)C(O)c6ccccc6)C[C@H]5C4)nc3)c3c(C#N)cnn3c2)cn1` (stereo partly drawn) [Example 3, 4-(6-((3aR,6aS)-5-(2-hydroxy-2-phenylacetyl)hexahydropyrrolo[3,4-c]pyrrol-2(1H)-yl)pyridin-3-yl)-6-(1-methyl-1H-pyrazol-4-yl)pyrazolo[1,5-a]pyridine-3-carbonitrile], for which the IC50 is ≤ 10 nM against human RET kinase, 10 to 50 nM at human KDR kinase and 10 to 50 nM with TT cells.
`CCOc1cc(-c2ccc(N3C[C@@H]4[C@H](C3)[C@H]4NC(=O)c3ncccc3Cl)nc2)c2c(C#N)cnn2c1` [Example 38, 3-chloro-N-((1R,5S,6s)-3-(5-(3-cyano-6-ethoxypyrazolo[1,5-a]pyridin-4-yl)pyridin-2-yl)-3-azabicyclo[3.1.0]hexan-6-yl)picolinamide]: the IC50 on human KDR kinase and with TT cells was > 100 nM each time.
`CCOc1cc(-c2ccc(N3C[C@@H]4[C@H](C3)[C@@H]4NC(=O)c3ncccc3Cl)nc2)c2c(C#N)cnn2c1` [Example 43, 3-chloro-N-((1R,5S,6r)-3-(5-(3-cyano-6-ethoxypyrazolo[1,5-a]pyridin-4-yl)pyridin-2-yl)-3-azabicyclo[3.1.0]hexan-6-yl)picolinamide]: the IC50 against human KDR kinase and with TT cells was > 100 nM each time.
For the molecule `CCOc1cc(-c2ccc(N3C[C@H]4C[C@@H](NC(=O)c5ncccc5Cl)C[C@H]4C3)nc2)c2c(C#N)cnn2c1` [Example 48, 3-chloro-N-((3aR,5r,6aS)-2-(5-(3-cyano-6-ethoxypyrazolo[1,5-a]pyridin-4-yl)pyridin-2-yl)octahydrocyclopenta[c]pyrrol-5-yl)picolinamide], the IC50 against human KDR kinase was 10 to 50 nM; with TT cells it was ≤ 10 nM.
Taken in the same sequence, the figures for `CCOc1cc(-c2ccc(N3C[C@H]4C[C@H](NC(=O)c5ncccc5Cl)C[C@H]4C3)nc2)c2c(C#N)cnn2c1` [Example 49, 3-chloro-N-((3aR,5s,6aS)-2-(5-(3-cyano-6-ethoxypyrazolo[1,5-a]pyridin-4-yl)pyridin-2-yl)octahydrocyclopenta[c]pyrrol-5-yl)picolinamide] were 10 to 50 nM and 10 to 50 nM.
Taken in the same sequence, the figures for `CCOc1cc(-c2ccc(N3C[C@@H]4C[C@@](C)(NC(=O)c5ncccc5Cl)C[C@@H]4C3)nc2)c2c(C#N)cnn2c1` [Example 51, 3-chloro-N-((3aR,5s,6aS)-2-(5-(3-cyano-6-ethoxypyrazolo[1,5-a]pyridin-4-yl)pyridin-2-yl)-5-methyloctahydrocyclopenta[c]pyrrol-5-yl)picolinamide] were 10 to 50 nM and 10 to 50 nM.
As for `CCOc1cc(-c2ccc(N3C[C@@H]4[C@@H](CNC(=O)c5ncccc5Cl)[C@@H]4C3)nc2)c2c(C#N)cnn2c1` [Example 94, 3-chloro-N-(((1R,5S,6s)-3-(5-(3-cyano-6-ethoxypyrazolo[1,5-a]pyridin-4-yl)pyridin-2-yl)-3-azabicyclo[3.1.0]hexan-6-yl)methyl)picolinamide], the IC50 against human KDR kinase was 50 to 100 nM; in the test on TT cells it was 10 to 50 nM.
On to `COc1ccc(NC(=O)C23CC4CC(C2)N(c2cnc(-c5cc(-c6cnn(C)c6)cn6ncc(C#N)c56)cn2)C(C4)C3)cn1` [Example 114, (1R,3S,5s,7s)-2-(5-(3-cyano-6-(1-methyl-1H-pyrazol-4-yl)pyrazolo[1,5-a]pyridin-4-yl)pyrazin-2-yl)-N-(6-methoxypyridin-3-yl)-2-azaadamantane-5-carboxamide], for which, at human RET kinase, the IC50 is ≤ 10 nM.
For the molecule `COc1ccc(C(=O)N[C@]2(C)C[C@H]3CN(c4ccc(-c5cc(-c6ccn(C)n6)cn6ncc(C#N)c56)cn4)C[C@H]3C2)cn1` [Example 122, N-((3aR,5s,6aS)-2-(5-(3-cyano-6-(1-methyl-1H-pyrazol-3-yl)pyrazolo[1,5-a]pyridin-4-yl)pyridin-2-yl)-5-methyloctahydrocyclopenta[c]pyrrol-5-yl)-6-methoxynicotinamide], the IC50 against human RET kinase is ≤ 10 nM; against human KDR kinase it was 10 to 50 nM.
The matching figures for `CC(=O)NC12CC3CC(C1)N(c1ccc(-c4cc(OCC(C)(C)O)cn5ncc(C#N)c45)cn1)C(C3)C2` [Example 130, N-((1R,3S,5s,7s)-2-(5-(3-cyano-6-(2-hydroxy-2-methylpropoxy)pyrazolo[1,5-a]pyridin-4-yl)pyridin-2-yl)-2-azaadamantan-5-yl)acetamide]: ≤ 10 nM and > 100 nM.
Regarding `CCOc1cc(-c2ccc(N3C4CC5CC3CC(C(=O)Nc3ccc(OC)nc3)(C5)C4)nc2)c2c(C#N)cnn2c1` [Example 134, (1R3S,5s,7s)-2-(5-(3-cyano-6-ethoxypyrazolo[1,5-a]pyridin-4-yl)pyridin-2-yl)-N-(6-methoxypyridin-3-yl)-2-azaadamantane-5-carboxamide], on human RET kinase, the IC50 was ≤ 10 nM.
Take `COc1ccc(NC(=O)[C@H]2[C@@H]3CN(c4ccc(-c5cc(OCC(C)(C)O)cn6ncc(C#N)c56)cn4)C[C@@H]32)cn1` [Example 175, (1R,5S,6r)-3-(5-(3-cyano-6-(2-hydroxy-2-methylpropoxy)pyrazolo[1,5-a]pyridin-4-yl)pyridin-2-yl)-N-(6-methoxypyridin-3-yl)-3-azabicyclo[3.1.0]hexane-6-carboxamide]: the IC50 at human RET kinase is ≤ 10 nM.
As for `Cn1cc(-c2cc(-c3ccc(N4C[C@@H]5[C@@H](CNC(=O)c6c(F)cccc6Cl)[C@@H]5C4)nc3)c3c(C#N)cnn3c2)cn1` [Example 187, 2-chloro-N-(((1R,5S,6s)-3-(5-(3-cyano-6-(1-methyl-1H-pyrazol-4-yl)pyrazolo[1,5-a]pyridin-4-yl)pyridin-2-yl)-3-azabicyclo[3.1.0]hexan-6-yl)methyl)-6-fluorobenzamide], the IC50 against human RET kinase and against human KDR kinase was ≤ 10 nM throughout.
